{"source": "paper PMC9063988", "about": "(JACS Au, 2022)", "origin": "cited, not measured here", "test_system": "SARS-CoV-2 spike pseudo-lentiviral vector into A549 cells overexpressing ACE2 and TMPRSS2", "data": [{"smiles": "O=c1c2ccccc2[se]n1-c1ccccc1", "note": "[ebselen]", "values": [{"measurement": "inhibition of entry of SARS-CoV-2 lentivectors", "result": "only at high IC50 with high toxicity"}]}]}
